According to patent US10130693B2, “Peptides, combination of peptides and scaffolds for use in immunotherapeutic treatment of various cancers” (Immatics Biotechnologies GmbH, priority 2015, dated 2018):

Each substance was assayed on HLA-A*24 (assay: MHC binding assay, UV-ligand exchange with beta2m ELISA (exchange yield), HLA-A*24). Details: binding to HLA-A*24, UV-ligand exchange.
Parameters: species or system human
Excerpt: Candidate peptides for T cell based therapies according to the present invention were further tested for their MHC binding capacity (affinity). The individual peptide-MHC complexes were produced by UV-ligand exchange, where a UV-sensitive peptide is cleaved upon UV-irradiation, and exchanged with the peptide of interest as analyzed. Only peptide candidates that can effectively bind and stabilize the peptide-receptive MHC molecules prevent dissociation of the MHC complexes. To determine the yield of the exchange reaction, an ELISA was performed based on the detection of the light chain (β2m) of stabilized MHC complexes. The assay was performed as generally described in Rodenko et al. (Rodenko et al., 2006).
96 well MAXISorp plates (NUNC) were coated over night with 2 ug/ml streptavidin in PBS at room temperature, washed 4× and blocked for 1 h at 37° C. in 2% BSA containing blocking buffer. […] Peptide-MHC monomers of the UV-exchange reaction were diluted 100 fold in blocking buffer. Samples were incubated for 1 h at 37° C., washed four times, incubated with 2 ug/ml HRP conjugated anti-β2m for 1h at 37° C., washed again and detected with TMB solution that is stopped with […]. Absorption was measured at 450 nm. Candidate peptides that show a high exchange yield (preferably higher than 50%, most preferred higher than 75%) are generally preferred for a generation and production of antibodies or fragments thereof, and/or T cell receptors or fragments thereof, as they show sufficient avidity to the MHC molecules and prevent dissociation of the MHC complexes.

Peptide exchange (MHC class I binding score, peptide exchange yield)	Substance
++++ (>=75% = ++++)	208 (TYLEKIDGF; listed as Homo sapiens) [compound 208]
++++ (>=75% = ++++)	209 (AFIETPIPLF; listed as Homo sapiens) [compound 209]
++++ (>=75% = ++++)	210 (IYAGVGEFSF; listed as Homo sapiens) [compound 210]
++++ (>=75% = ++++)	211 (VFKSEGAYF; listed as Homo sapiens) [compound 211]
++ (20%-49% = ++)	212 (SYAPPSEDLF; listed as Homo sapiens) [compound 212]
++ (20%-49% = ++)	213 (SYAPPSEDLFL; listed as Homo sapiens) [compound 213]
+++ (50%-75% = +++)	214 (KYLMELTLI; listed as Homo sapiens) [compound 214]
++ (20%-49% = ++)	215 (SYVASFFLL; listed as Homo sapiens) [compound 215]
+++ (50%-75% = +++)	216 (FYVNVKEQF; listed as Homo sapiens) [compound 216]
++++ (>=75% = ++++)	217 (IYISNSIYF; listed as Homo sapiens) [compound 217]
+++ (50%-75% = +++)	218 (LYSELNKWSF; listed as Homo sapiens) [compound 218]
+++ (50%-75% = +++)	219 (SYLKAVFNL; listed as Homo sapiens) [compound 219]
++++ (>=75% = ++++)	220 (SYSEIKDFL; listed as Homo sapiens) [compound 220]
++++ (>=75% = ++++)	221 (KYIGNLDLL; listed as Homo sapiens) [compound 221]
++++ (>=75% = ++++)	223 (TFITQSPLL; listed as Homo sapiens) [compound 223]
+++ (50%-75% = +++)	224 (PYFFANQEF; listed as Homo sapiens) [compound 224]
+++ (50%-75% = +++)	225 (TYTNTLERL; listed as Homo sapiens) [compound 225]
++ (20%-49% = ++)	226 (MYLKLVQLF; listed as Homo sapiens) [compound 226]
+++ (50%-75% = +++)	227 (IYRFITERF; listed as Homo sapiens) [compound 227]

Peptide exchange (MHC class I binding score, peptide exchange yield)	Substance
+++ (50%-75% = +++)	228 (IYQYVADNF; listed as Homo sapiens) [compound 228]
+++ (50%-75% = +++)	229 (IYQFVADSF; listed as Homo sapiens) [compound 229]
+++ (50%-75% = +++)	230 (TYGMVMVTF; listed as Homo sapiens) [compound 230]
++++ (>=75% = ++++)	231 (AFADVSVKF; listed as Homo sapiens) [compound 231]
+++ (50%-75% = +++)	232 (YYLSDSPLL; listed as Homo sapiens) [compound 232]
+++ (50%-75% = +++)	233 (QYLTAAALHNL; listed as Homo sapiens) [compound 233]
+++ (50%-75% = +++)	234 (SYLPAIWLL; listed as Homo sapiens) [compound 234]
+++ (50%-75% = +++)	235 (VYKDSIYYI; listed as Homo sapiens) [compound 235]
+++ (50%-75% = +++)	236 (VYLPKIPSW; listed as Homo sapiens) [compound 236]
+++ (50%-75% = +++)	237 (KYVGQLAVL; listed as Homo sapiens) [compound 237]
+++ (50%-75% = +++)	239 (VYAIFRILL; listed as Homo sapiens) [compound 239]
+++ (50%-75% = +++)	240 (YYFFVQEKI; listed as Homo sapiens) [compound 240]
+++ (50%-75% = +++)	241 (SYVKVLHHL; listed as Homo sapiens) [compound 241]
+++ (50%-75% = +++)	242 (VYGEPRELL; listed as Homo sapiens) [compound 242]
+++ (50%-75% = +++)	243 (SYLELANTL; listed as Homo sapiens) [compound 243]
+++ (50%-75% = +++)	244 (VHFEDTGKTLLF; listed as Homo sapiens) [compound 244]
+++ (50%-75% = +++)	245 (LYPQLFVVL; listed as Homo sapiens) [compound 245]
++ (20%-49% = ++)	246 (KYLSVQLTL; listed as Homo sapiens) [compound 246]
+++ (50%-75% = +++)	247 (SFTKTSPNF; listed as Homo sapiens) [compound 247]

Peptide exchange (MHC class I binding score, peptide exchange yield)	Substance
++++ (>=75% = ++++)	248 (AFPTFSVQL; listed as Homo sapiens) [compound 248]
++++ (>=75% = ++++)	249 (RYHPTTCTI; listed as Homo sapiens) [compound 249]
++ (20%-49% = ++)	250 (KYPDIASPTF; listed as Homo sapiens) [compound 250]
+++ (50%-75% = +++)	251 (VYTKALSSL; listed as Homo sapiens) [compound 251]
++++ (>=75% = ++++)	252 (AFGQETNVPLNNF; listed as Homo sapiens) [compound 252]
+++ (50%-75% = +++)	253 (IYGFFNENF; listed as Homo sapiens) [compound 253]
+++ (50%-75% = +++)	254 (KYLESSATF; listed as Homo sapiens) [compound 254]
+++ (50%-75% = +++)	255 (VYQKIILKF; listed as Homo sapiens) [compound 255]
+++ (50%-75% = +++)	256 (VFGKSAYLF; listed as Homo sapiens) [compound 256]
+++ (50%-75% = +++)	257 (IFIDNSTQPLHF; listed as Homo sapiens) [compound 257]
+++ (50%-75% = +++)	258 (AYAQLGYLL; listed as Homo sapiens) [compound 258]
++ (20%-49% = ++)	259 (YFIKSPPSQLF; listed as Homo sapiens) [compound 259]
++++ (>=75% = ++++)	260 (VYMNVMTRL; listed as Homo sapiens) [compound 260]
++++ (>=75% = ++++)	261 (GYIKLINFI; listed as Homo sapiens) [compound 261]
++++ (>=75% = ++++)	262 (VYSSQFETI; listed as Homo sapiens) [compound 262]
+++ (50%-75% = +++)	263 (RYILENHDF; listed as Homo sapiens) [compound 263]
++++ (>=75% = ++++)	264 (LYTETRLQF; listed as Homo sapiens) [compound 264]
++++ (>=75% = ++++)	265 (SYLNEAFSF; listed as Homo sapiens) [compound 265]
+++ (50%-75% = +++)	266 (KYTDWTEFL; listed as Homo sapiens) [compound 266]
